Experimental data: patent US12297203B2, “Pyrrolopyrimidine ITK inhibitors” (ACLARIS THERAPEUTICS, INC., priority 2018, dated 2025)
Read-outs that look alike come from different tables or passages of the source.

How the values were obtained:
[1] = system: JAK1/3 phosphorylation of its substrate, STAT5, at Y694; test: JAK1/3 target modulation assay (IL-2 stimulated STAT5 Y694 phosphorylation in PBMC); assay type: cell-based; details: Primary human peripheral blood mononuclear cells, IL-2 25 ng/mL, read-out: IL2-STAT5 Inh. IC50
Summary of the method: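 Human PBMCs preincubated with compound for 1 h at 37 °C, then stimulated with IL-2 (25 ng/mL final) for 5 min. Cells were lysed and phospho-STAT5a,b (Y694) measured by MSD electrochemiluminescence immunoassay, single-plex or multiplex with total STAT5a,b.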

[2] = system: ITK phosphorylation of its substrate, PLCγ1, at Y783; test: ITK target modulation assay (PLCγ1 Y783 phosphorylation, anti-CD3 stimulated Jurkat T cells); assay type: cell-based; details: Homo sapiens, Jurkat, anti-CD3 Dynabeads stimulation, read-out: PLC-γ Inh. IC50
Summary of the method: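 Jurkat cells (400,000/well) were preincubated with compound for 1 h at 37 °C (0.1% DMSO final), then stimulated with anti-CD3 Dynabeads (bead:cell 2:1). Hypotonic lysates were dot-blotted and probed for phospho-PLCγ1 Y783 and total PLCγ1, with quantification by dual-channel infrared imaging.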

[3] = biological target: JAK3 (Homo sapiens (Human), UniProt P52333); test: JAK3 enzyme activity assay (Caliper mobility shift); assay type: biochemical; details: ATP at Km level; read-out: JAK3 Inh. IC50
Summary of the method: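 Caliper mobility-shift assay with 2.5 nM JAK3, […] and […] (Km level) in 20 mM HEPES pH 7.5, 10 mM MgCl2, 0.01% BSA, 0.0005% Tween-20, 2% DMSO. 11-point dose-response from […] 0.34 nM; IC50 by 4-parameter logistic fit of product/substrate signal.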

[4] = biological target: ITK (Homo sapiens (Human), UniProt Q08881); test: ITK inhibitor binding potency (LanthaScreen competitive binding assay); details: read-out: ITK Inh. IC50
Summary of the method: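 TR-FRET tracer displacement: 10 nM GST-ITK, 2 nM Eu-anti-GST, 50 nM tracer-236 in HEPES pH 7.5, MgCl2, 2% DMSO; 11 points, 20 µM–0.34 nM. Run with or without 2 h compound–ITK preincubation before tracer; IC50 by 4-parameter fit of emission ratio.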

Chain of JAK3 (P52333 781-1124): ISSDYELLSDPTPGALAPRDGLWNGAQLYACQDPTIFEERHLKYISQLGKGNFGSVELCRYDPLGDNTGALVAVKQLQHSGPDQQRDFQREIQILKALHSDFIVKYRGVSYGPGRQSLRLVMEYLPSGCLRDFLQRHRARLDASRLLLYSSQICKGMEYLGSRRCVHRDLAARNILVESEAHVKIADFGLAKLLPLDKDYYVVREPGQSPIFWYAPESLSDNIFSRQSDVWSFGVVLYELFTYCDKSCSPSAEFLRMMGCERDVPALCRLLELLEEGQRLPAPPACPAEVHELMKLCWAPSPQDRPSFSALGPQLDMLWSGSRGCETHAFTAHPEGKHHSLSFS
Chain of ITK (Q08881 whole entry): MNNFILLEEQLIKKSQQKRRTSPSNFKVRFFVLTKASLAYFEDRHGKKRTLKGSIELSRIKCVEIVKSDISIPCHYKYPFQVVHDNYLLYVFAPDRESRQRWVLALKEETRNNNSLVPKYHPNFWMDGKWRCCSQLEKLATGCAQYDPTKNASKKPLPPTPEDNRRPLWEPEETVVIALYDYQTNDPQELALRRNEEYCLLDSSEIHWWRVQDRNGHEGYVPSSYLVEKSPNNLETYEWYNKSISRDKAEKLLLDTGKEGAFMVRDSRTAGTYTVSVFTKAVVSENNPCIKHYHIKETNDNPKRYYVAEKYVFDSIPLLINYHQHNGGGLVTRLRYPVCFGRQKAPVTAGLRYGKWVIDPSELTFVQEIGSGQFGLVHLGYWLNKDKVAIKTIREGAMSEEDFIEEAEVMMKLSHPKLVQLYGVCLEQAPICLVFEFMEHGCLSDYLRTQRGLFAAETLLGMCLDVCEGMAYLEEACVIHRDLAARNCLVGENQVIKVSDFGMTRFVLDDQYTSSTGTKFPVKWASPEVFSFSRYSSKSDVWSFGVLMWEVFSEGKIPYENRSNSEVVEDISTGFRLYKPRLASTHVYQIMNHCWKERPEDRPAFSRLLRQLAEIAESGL

Row | IC50 ([1]; Homo sapiens, PBMC) [nM] | IC50 [2] [nM] | IC50 [3] [nM] | IC50 [4] [nM] | IC50 [1] [nM] | Structure (SMILES)
1 | 100 to 1000 | ≤ 100 | ≤ 10 | ≤ 10 | – | C=CC(=O)N1CCC[C@@H](Nc2ccnc3[nH]cc(CC4CC4)c23)C1 [Example 19, (R)-1-(3-((3-(cyclopropylmethyl)-1H-pyrrolo[2,3-b]pyridin-4-yl)amino)piperidin-1-yl)prop-2-en-1-one]
2 | > 1000 | 100 to 1000 | > 100 | > 100 | – | C/C=C/C(=O)N1C[C@H](Nc2ncnc3[nH]cc([C@@H]4CC4(F)F)c23)CC[C@@H]1C (single isomer, unassigned) [Example 58]
3 | > 1000 | 100 to 1000 | 10 to 100 | ≤ 10 | – | C=CC(=O)N1CC[C@@H](Nc2ccnc3[nH]cc(C(=O)C4CC4)c23)C1 [Example 15, (R)-1-(3-((3-(cyclopropanecarbonyl)-1H-pyrrolo[2,3-b]pyridin-4-yl)amino)pyrrolidin-1-yl)prop-2-en-1-one]
4 | > 1000 | > 1000 | > 100 | > 100 | – | C=CC(=O)N1C[C@H](Nc2ncnc3[nH]cc([C@H]4CC4(F)F)c23)CC[C@@H]1CC (single isomer, unassigned) [Example 67]
5 | 100 to 1000 | 100 to 1000 | ≤ 10 | ≤ 10 | – | C=CC(=O)N1C[C@H](Nc2ncnc3[nH]cc(C(=O)OC(C)C)c23)CC[C@@H]1C [Example 4, isopropyl 4-(((3R,6S)-1-acryloyl-6-methylpiperidin-3-yl)amino)-7H-pyrrolo[2,3-d]pyrimidine-5-carboxylate]
6 | 100 to 1000 | ≤ 100 | ≤ 10 | ≤ 10 | – | C=CC(=O)N1C[C@H](Nc2ncnc3[nH]cc(C(=O)OCCC)c23)CC[C@@H]1C [Example 3, propyl 4-(((3R,6S)-1-acryloyl-6-methylpiperidin-3-yl)amino)-7H-pyrrolo[2,3-d]pyrimidine-5-carboxylate]
7 | 100 to 1000 | > 1000 | ≤ 10 | > 100 | – | C=CC(=O)N1CCC(Nc2cnc3[nH]cc(C(=O)OCC)c3n2)CC1 [Example 97, ethyl 2-((1-acryloylpiperidin-4-yl)amino)-5H-pyrrolo[2,3-b]pyrazine-7-carboxylate]
8 | > 1000 | > 1000 | > 100 | > 100 | – | C=CC(=O)N1C[C@H](Nc2ncnc3[nH]cc(CC4CC4)c23)CC[C@@H]1C(C)C (single isomer, unassigned) [Example 43]
9 | > 1000 | > 1000 | 10 to 100 | ≤ 10 | – | C=CC(=O)N1CCC[C@@H](Nc2ncnc3[nH]cc(C(=O)[C@@H]4CCOC4)c23)C1 (single isomer, unassigned) [Example 12]
10 | > 1000 | 100 to 1000 | 10 to 100 | ≤ 10 | – | C=CC(=O)N1CCC[C@@H](Nc2ncnc3[nH]cc(C(=O)C4CC4)c23)C1 [Example 5, (R)-1-(3-((5-(cyclopropanecarbonyl)-7H-pyrrolo[2,3-d]pyrimidin-4-yl)amino)piperidin-1-yl)prop-2-en-1-one]
11 | – | 100 to 1000 | 10 to 100 | ≤ 10 | > 1000 | C=CC(=O)N1CCC[C@@H](Nc2ncnc3[nH]cc([C@H]4C[C@@H]4COC)c23)C1 (single isomer, unassigned) [Example 25]
12 | 100 to 1000 | 100 to 1000 | ≤ 10 | ≤ 10 | – | C=CC(=O)N1CCC[C@@H](Nc2ncnc3[nH]cc(CC4CCC4)c23)C1 [Example 20, (R)-1-(3-((5-(cyclobutylmethyl)-7H-pyrrolo[2,3-d]pyrimidin-4-yl)amino)piperidin-1-yl)prop-2-en-1-one]
13 | > 1000 | 100 to 1000 | 10 to 100 | ≤ 10 | – | C[C@H]1CC[C@@H](Nc2ncnc3[nH]cc(CC4CC4)c23)CN1C(=O)/C=C/CN(C)C [Example 37, (E)-1-((2S,5R)-5-((5-(cyclopropylmethyl)-7H-pyrrolo[2,3-d]pyrimidin-4-yl)amino)-2-methylpiperidin-1-yl)-4-(dimethylamino)but-2-en-1-one]
14 | 100 to 1000 | 100 to 1000 | ≤ 10 | ≤ 10 | – | C=CC(=O)N1C[C@H](Nc2ncnc3[nH]cc(C(=O)OCC)c23)CC[C@@H]1C [Example 2, ethyl 4-(((3R,6S)-1-acryloyl-6-methylpiperidin-3-yl)amino)-7H-pyrrolo[2,3-d]pyrimidine-5-carboxylate]
15 | > 1000 | 100 to 1000 | > 100 | > 100 | – | C=C(C)C(=O)N1C[C@H](Nc2ncnc3[nH]cc([C@H]4CC4(F)F)c23)CC[C@@H]1C (single isomer, unassigned) [Example 62]
16 | ≤ 100 | 100 to 1000 | ≤ 10 | ≤ 10 | – | C=CC(=O)N1C[C@H](Nc2ncnc3[nH]cc([C@H]4[C@@H](C)C4(F)F)c23)CC[C@@H]1C (single isomer, unassigned) [Example 55]
17 | ≤ 100 | ≤ 100 | ≤ 10 | ≤ 10 | – | C=CC(=O)N1C[C@H](Nc2ncnc3[nH]cc([C@H]4[C@H](C)C4(F)F)c23)CC[C@@H]1C (single isomer, unassigned) [Example 51]
18 | 100 to 1000 | > 1000 | ≤ 10 | > 100 | – | C=CC(=O)N1CCC(Nc2cnc3[nH]cc(C(=O)OCC)c3c2)CC1 [Example 96, ethyl 5-((1-acryloylpiperidin-4-yl)amino)-1H-pyrrolo[2,3-b]pyridine-3-carboxylate]
19 | > 1000 | > 1000 | 10 to 100 | > 100 | – | C=CC(=O)N1CCC(Nc2cnc3[nH]cc(C(=O)C4CC4)c3c2)CC1 [Example 98, 1-(4-((3-(cyclopropanecarbonyl)-1H-pyrrolo[2,3-b]pyridin-5-yl)amino)piperidin-1-yl)prop-2-en-1-one]
20 | 100 to 1000 | ≤ 100 | ≤ 10 | ≤ 10 | – | C=CC(=O)N1C[C@H](Nc2ccnc3[nH]cc(C(=O)C4CC4)c23)CC[C@@H]1C [Example 34, 1-((2S,5R)-5-((3-(cyclopropanecarbonyl)-1H-pyrrolo[2,3-b]pyridin-4-yl)amino)-2-methylpiperidin-1-yl)prop-2-en-1-one]
21 | > 1000 | 100 to 1000 | 10 to 100 | 10 to 100 | – | C=CC(=O)N1C[C@@H](Nc2ncnc3[nH]cc([C@H]4CC4(F)F)c23)CC[C@H]1CC (single isomer, unassigned) [Example 69]
22 | > 1000 | > 1000 | > 100 | > 100 | – | C=CC(=O)N1CCC(Nc2cnc3[nH]cc(C(COC)C4CC4)c3c2)CC1 (stereo not shown) [Example 101, 1-(4-((3-(1-cyclopropyl-2-methoxyethyl)-1H-pyrrolo[2,3-b]pyridin-5-yl)amino)piperidin-1-yl)prop-2-en-1-one]
23 | > 1000 | > 1000 | 10 to 100 | 10 to 100 | – | C=CC(=O)N1CCC[C@@H](Nc2ccnc3[nH]cc(C(=O)CCOC)c23)C1 [Example 8, (R)-1-(3-((3-(3-methoxypropanoyl)-1H-pyrrolo[2,3-b]pyridin-4-yl)amino)piperidin-1-yl)prop-2-en-1-one]
24 | 100 to 1000 | 100 to 1000 | ≤ 10 | ≤ 10 | – | C=CC(=O)N1C[C@H](Nc2ncnc3[nH]cc(CC4CCC(CC)C4)c23)CC[C@@H]1C (mixture of isomers) [Example 36, 1-((2S,5R)-5-((5-((3-ethylcyclopentyl)methyl)-7H-pyrrolo[2,3-d]pyrimidin-4-yl)amino)-2-methylpiperidin-1-yl)prop-2-en-1-one]
25 | 100 to 1000 | 100 to 1000 | ≤ 10 | ≤ 10 | – | C=CC(=O)N1CC(Nc2ncnc3[nH]cc(CC4CC4)c23)CCC1CC (stereo not shown) [Example 38, 1-(5-((5-(cyclopropylmethyl)-7H-pyrrolo[2,3-d]pyrimidin-4-yl)amino)-2-ethylpiperidin-1-yl)prop-2-en-1-one]
26 | > 1000 | > 1000 | > 100 | > 100 | – | C=CC(=O)N1C[C@H](Nc2ncnc3[nH]cc(CC4CC4)c23)CC[C@@H]1CC (single isomer, unassigned) [Example 40]
27 | 100 to 1000 | ≤ 100 | ≤ 10 | ≤ 10 | – | C=CC(=O)N1CCC[C@@H](Nc2ncnc3[nH]cc(C4CCCC4)c23)C1 [Example 28, (R)-1-(3-((5-cyclopentyl-7H-pyrrolo[2,3-d]pyrimidin-4-yl)amino)piperidin-1-yl)prop-2-en-1-one]
28 | > 1000 | > 1000 | > 100 | > 100 | – | C=CC(=O)N1C[C@H](Nc2ncnc3[nH]cc([C@@H]4CC4(F)F)c23)CC[C@@H]1C(C)C (single isomer, unassigned) [Example 64]
